Measured values taken from patent US20250049727A1, “COMPOSITIONS FOR THE DELIVERY OF PAYLOAD MOLECULES TO AIRWAY EPITHELIUM” (ModernaTX, Inc., priority 2021, published 2025).
Counter-ions that a name gives are not always drawn.

Assay: Nanoparticle zeta potential (Malvern Zetasizer Nano ZS)
Type: physicochemical
Settings: LNP with sterol amine, core LNP Compound 18, DSPC, Cholesterol, and DMG-PEG 2K, [mRNA] 0.01 mg/mL in 0.1×PBS
Procedure: LNPs were prepared according to Example 2. Zeta potential was measured by diluting LNPs to [mRNA] 0.01 mg/mL in 0.1×PBS on a Malvern Zetasizer (Nano ZS).

SMILES	Zeta Potential (β-sitosterol) [mV]	Zeta Potential [mV]
CC(C)CCC[C@@H](C)[C@H]1CC[C@H]2[C@@H]3CC=C4C[C@@H](OC(=O)NCCCNCCCCN)CC[C@]4(C)[C@H]3CC[C@]12C [SA30, (3S,8S,9S,10R,13R,14S,17R)-10,13-Dimethyl-17-((R)-6-methylheptan-2-yl)-2,3,4,7,8,9,10,11,12,13,14,15,16,17-tetradecahydro-1H-cyclopenta[a]phenanthren-3-yl (3-((4-aminobutyl)amino)propyl)carbamate dihydrochloride]	8.7	–
CC(C)CCC[C@@H](C)[C@H]1CC[C@H]2[C@@H]3CC=C4C[C@@H](OC(=O)NCCNC(=N)N)CC[C@]4(C)[C@H]3CC[C@]12C [SA23, (3S,8S,9S,10R,13R,14S,17R)-10,13-dimethyl-17-((R)-6-methylheptan-2-yl)-2,3,4,7,8,9,10,11,12,13,14,15,16,17-tetradecahydro-1H-cyclopenta[a]phenanthren-3-yl (2-guanidinoethyl)carbamate, hydrochloride salt]	12.7	–
CC(C)CCC[C@@H](C)[C@H]1CC[C@H]2[C@@H]3CC=C4C[C@@H](OC(=O)CCC(=O)N(CCCN)CCCCN)CC[C@]4(C)[C@H]3CC[C@]12C [SA31, (3S,8S,9S,10R,13R,14S,17R)-10,13-Dimethyl-17-((R)-6-methylheptan-2-yl)-2,3,4,7,8,9,10,11,12,13,14,15,16,17-tetradecahydro-1H-cyclopenta[a]phenanthren-3-yl 4-((4-aminobutyl)(3-aminopropyl)amino)-4-oxobutanoate dihydrochloride]	8.6	–
CC(C)CCC[C@@H](C)[C@H]1CC[C@H]2[C@@H]3CC=C4C[C@@H](OC(=O)N(CCCN)CCCCNCCCN)CC[C@]4(C)[C@H]3CC[C@]12C [SA3, (3S,8S,9S,10R,13R,14S,17R)-10,13-dimethyl-17-((R)-6-methylheptan-2-yl)-2,3,4,7,8,9,10,11,12,13,14,15,16,17-tetradecahydro-1H-cyclopenta[a]phenanthren-3-yl (3-aminopropyl)(4-((3-aminopropyl)amino)butyl)carbamate, trihydrochloride salt]	–	10.6
CC(C)CCC[C@@H](C)[C@H]1CC[C@H]2[C@@H]3CC=C4C[C@@H](OC(=O)N(CCCN)CCCCN)CC[C@]4(C)[C@H]3CC[C@]12C [SA29, (3S,8S,9S,10R,13R,14S,17R)-10,13-Dimethyl-17-((R)-6-methylheptan-2-yl)-2,3,4,7,8,9,10,11,12,13,14,15,16,17-tetradecahydro-1H-cyclopenta[a]phenanthren-3-yl (4-aminobutyl)(3-aminopropyl)carbamate dihydrochloride]	8.3	–
